The subject of the experiment is rabbit aortic smooth muscle cells. In words: aortic explant assay of smooth muscle cell migration induced by platelet-derived growth factor. The experiment is classed as cell-based. The following applies: Oryctolagus cuniculus, read-out: % inhibition of SMC migration from explants. As for the experimental part: In this method uniform pieces of intimal/medial tissue from rabbit aorta were cultured in individual wells of a well plate. Migration was induced by addition of platelet-derived growth factor to the culture. Following a lag phase of several days the smooth muscle cells migrated from the explanted tissue and proliferated.
The distance covered by the outgrowing smooth muscle cells was measured.
This assay was carried out with varying concentrations of test compound added to the culture. The compounds thus tested were the maleate salts of the racemic mixture of R(+) and S(-) amlodipine, the maleate salts of R(+) and S(-) amlodipine separately and the known calcium channel-blocking agents nitrendipine and verapamil.
The results obtained are shown in Table 1, in which the percentage inhibition of smooth muscle cell migration for concentrations of test compound of 1 nanomole and 0.1 nanomole are recorded.

Setting [1] is: 0.1 nM test compound, rabbit aortic explants, PDGF-induced migration.
Where [2] appears, read: 1 nM test compound, rabbit aortic explants, PDGF-induced migration.

Where two headings read alike, the source gives them in different places.

This passage reports inhibition results from patent US6080761A, “Inhibition of smooth muscle cell migration by (R)-amlodipine” (Pfizer Inc., priority 1993, dated 2000).

On to `CCOC(=O)C1=C(COCCN)NC(C)=C(C(=O)OC)[C@H]1c1ccccc1Cl` [Amlodipine R (+), R(+) isomer of 3-ethyl-5-methyl-2-(2-aminoethoxy-methyl)-4-(2-chlorophenyl)-1,4-dihydro-6-methylpyridine-3,5-dicarboxylate], for which the inhibition at 0.0001 µM under setting [1] was found to be 36%. Moreover, the inhibition at 0.001 µM under setting [2] was determined as 39%.
On the same counts, the results for `CCOC(=O)C1=C(COCCN)NC(C)=C(C(=O)OC)[C@@H]1c1ccccc1Cl` [Amlodipine S (-)] are 21% and 30%.
Take `CCOC(=O)C1=C(COCCN)NC(C)=C(C(=O)OC)C1c1ccccc1Cl` (racemic) [Amlodipine (racemate), 3-ethyl-5-methyl-2-(2-aminoethoxy-methyl)-4-(2-chlorophenyl)-1,4-dihydro-6-methylpyridine-3,5-dicarboxylate]: the inhibition at 0.0001 µM under setting [1] turned out to be 39%. For the same compound, the inhibition at 0.001 µM under setting [2] stood at 33%.
For `CCOC(=O)C1=C(C)NC(C)=C(C(=O)OC)C1c1cccc([N+](=O)[O-])c1` (stereo not shown) [Nitrendipine, nitrendipine], the inhibition at 0.0001 µM under setting [1] amounted to 14%. Moreover, the inhibition at 0.001 µM under setting [2] amounted to 28%.
Turning to `COc1ccc(CCN(C)CCCC(C#N)(c2ccc(OC)c(OC)c2)C(C)C)cc1OC` (stereo not shown) [Verapamil, verapamil], the inhibition at 0.0001 µM worked out at 13% and the inhibition at 0.001 µM came to 22%.
